For one data set, the system named is Crohn's disease. The conditions noted are these: multiple controlled trials and a recent meta-analysis; cited from earlier work.
The next data set concerns ulcerative colitis. Conditions: cited from earlier work.
The conditions of data set [1]: patients treated long-term with 6MP or AZA for IBD; cited from earlier work.
Data set [2] concerns acetic acid-induced colitis. Put plainly: Acetic acid-induced colitis in the rat (pre-treatment, intrarectal). Conditions: for effectiveness against acetic acid-induced colitis: i.r., 650 μmol/kg, before acetic acid, rat. In kind it is in vivo, rat (Sprague-Dawley). The text has this: A typical model of IBD in acetic acid-induced colitis in the rat has been described by Krawisz et al in Amer. J. Proc. Gastro. Col. Rec. Surg., Vol. 31, pages 11-18 (1980); and by Sharon et al in Gastroenterology, Vol. 88, pages 55-63 (1985) and Vol. 86, pages 453-460 (1984). Acetic acid-induced colitis is characterized by the movement of inflammatory cells into the colon, with the number of such cells in the mucosa being measured by the activity of myeloperoxidase, a marker enzyme for these cells. Positive desirable activity is indicated by a reduction in the high levels of myeloperoxidase caused by acetic acid.
Typically, Sprague-Dawley rats from Charles River Laboratories, Portage, Michigan (either sex, weight approximately 250 g) are dosed with test compounds and controls. Thereafter, the rats are given an intracolonic enema of acetic acid which produces a severe inflammatory response in the colon of a healthy rat characterized by rectal bleeding, diarrhea, epithelial erosions and destructions of crypts and gland cells. Twenty-four hours later, the test and control animals are sacrificed and the distal ten centimeters of the colons are removed and opened longitudinally. The tissue lesions contained within the removed, opened section of the colons are scored.
After the systematic evaluation of the impact of various fasting times, use of vehicles, the time interval between pre-treatment and administration of the acetic acid and altering the concentration of acetic acid, the final protocol for the experiments is to fast the rats for 30 hours in hanging wire cages, anesthetize the animals with sodium pentobarbital, administer the test drug 1 cc intrarectally (i.r.) either as a suspension or a solution in water, and to give the acetic acid (7.5% in water) 1 cc i.r. 30 minutes later. The rats are sacrificed 24 hours later and the colons are removed and assessed for damage.

Data set [3] can be described thus: Iron binding in a test tube.
Data set [4] can be described thus: Preliminary acute toxicity studies in mice. The class given is in vivo.
Data set [5] relates to acetic acid-induced colitis. The data set is described as follows: Reversal studies: compound given 30 minutes after acetic acid. The conditions noted are these: given 30 minutes after 2.5% acetic acid; rat. In kind it is in vivo.
Data set [6] can be described thus: Iron chelation when given to rats orally or subcutaneously. In kind it is in vivo. Conditions: orally or subcutaneously (s.c.).

The structures appear in SMILES notation.

Consider `Cn1cnc([N+](=O)[O-])c1Sc1ncnc2nc[nH]c12` [AZA, azathioprine], for which, in the data set on Crohn's disease, the “efficacy in Crohn's disease” value is “support the efficacy”. Moreover, in the data set on ulcerative colitis (several controlled trials), the “use in ulcerative colitis” value is listed as “support the use”. Moreover, the “dose-related leukopenia, patients affected” value in data set [1] is 2-5%.
`C[C@]1(C(=O)O)CSC(c2ncccc2O)=N1` [DFT, reference compound]: the “effectiveness against acetic acid-induced colitis” value in data set [2] is on record as “ineffective”.
In the case of `Cc1ccc(O)c(C2=NC(C(=O)O)CC2)c1` (centres unmarked) [2H-pyrrolecarboxylic acid, 3,4-dihydro-5-(2-hydroxy-5-methylphenyl)-2H-pyrrole-2-carboxylic acid], the “dose response: prevention of severe lesions” value in data set [2] (162.5 μmol/kg (41.5 mg/kg) at 1 cc i.r., rats) is listed as “severe lesions being prevented in a majority of rats”. The “head-to-head comparison with 5-ASA or its commercially available formulation (Rowasa)” value in data set [2] (650 μmol/kg vs. 1742 mmol/kg (so in the source), FIGS. 7 and 8) is listed as “far superior even at a much lower dose”. Besides, the “damage to the colons compared with control rats” value in data set [2] (FIGS. 2-8) is recorded as “considerably less damage”. The “damage in the colons of the rats, expanded experiments” value in data set [2] (expanded experiments) is “very little damage”. Moreover, the “damage in the colons of the test animals” value in data set [2] (i.r. at 650 μmol/kg (165 mg/kg N-methylhydroxamate or 166 mg/kg 2H-pyrrolecarboxylic acid), 30 minutes before acetic acid, FIGS. 2-8) was “very little damage”. Moreover, in data set [3], the iron binding entry is “binds iron remarkably well”. Also, the deaths entry in data set [4] (i.p., at doses up to 1 g/kg) is given as “no deaths”. The acute toxicity entry in data set [4] (preliminary) is reported as “virtually non-toxic”. Besides, in data set [5], the “lesions compared with the control group” value is “less severe and less active”; the “state of the lesions (resolution, histology)” value is “apparently resolving and with some lamina proprial fibrosis and considerable hyper-plasia of submucosal lymphoid tissue”. For the same compound, the “activity as an iron chelator” value in data set [6] is “inactive”.
As to `Nc1ccc(O)c(C(=O)O)c1` [mesalamine, 5-aminosalicylic acid], the “effectiveness for the treatment of acute UC” value in the data set on ulcerative colitis was “effective to some degree in some patients”.
In the case of `CC(=O)N(O)CCCCCNC(=O)CCC(=O)N(O)CCCCCNC(=O)CCC(=O)N(O)CCCCCN` [DFO, reference compound], in data set [2], the “effectiveness against acetic acid-induced colitis” value is “ineffective”.
As for `O=C(O)c1cc(/N=N/c2ccc(S(=O)(=O)Nc3ccccn3)cc2)ccc1O` [sulfasalazine], the “effectiveness for the treatment of acute UC” value in the data set on ulcerative colitis was “effective to some degree in some patients”.
Take `Sc1ncnc2nc[nH]c12` [6MP, 6-Mercaptopurine]: the “efficacy in Crohn's disease” value in the data set with Crohn's disease is listed as “support the efficacy”. The “dose-related leukopenia, patients affected” value in data set [1] was 2-5%.

Source of the values: patent US6159983A, “Method and composition for treatment of inflammatory bowel disease” (University of Florida, priority 1998, dated 2000).
